Measurements taken from patent US20120065152A1 (SHIRE LLC, priority 2010, published 2012).
Values joined by “and” are separate entries in the source; they are usually repeats but may differ in a detail not shown here. Identical values can stand only once. Counter-ions that a name gives are not always drawn. Like-named read-outs stand apart in the source and are kept apart here.

Experiments:
[1] = Stability studies on guanfacine prodrugs in buffers; format: physicochemical
a-2A adrenoceptor = biological target: T1, a-2A adrenoceptor (Homo sapiens, UniProt P08913); assay: a-2 adrenoceptor binding assay, [3H] RX821002 competition; conditions: human recombinant CHO cells, [3H] RX821002 (1 nM)
T1 construct: expressed in transfected cells; host or cells: CHO cells
T1 sequence (P08913 1-465): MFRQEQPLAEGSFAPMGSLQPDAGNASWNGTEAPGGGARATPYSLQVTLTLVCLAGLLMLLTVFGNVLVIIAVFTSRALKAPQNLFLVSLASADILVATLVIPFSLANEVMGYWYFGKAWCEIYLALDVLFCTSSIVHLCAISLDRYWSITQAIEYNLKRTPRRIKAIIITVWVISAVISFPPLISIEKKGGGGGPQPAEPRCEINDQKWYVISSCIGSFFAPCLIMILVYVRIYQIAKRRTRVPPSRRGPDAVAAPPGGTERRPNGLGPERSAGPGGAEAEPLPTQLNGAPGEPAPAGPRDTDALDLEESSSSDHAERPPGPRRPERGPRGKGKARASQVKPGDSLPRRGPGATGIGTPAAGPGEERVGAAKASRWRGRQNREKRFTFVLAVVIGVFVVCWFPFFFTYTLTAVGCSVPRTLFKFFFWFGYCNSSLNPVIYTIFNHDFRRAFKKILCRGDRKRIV
Description: The activation of this receptor is responsible for its intended therapeutic effect. […] The binding assay methodology employed in this study followed that described by […] et al. (Eur. J. Pharmacol. 167:95-104, 1989) and used human recombinant CHO cells expressing a-2 adrenceptors. The competitive binding ligand was [3H]

[2] = Microdose comparative bioavailability study in healthy adult subjects; format: in vivo; conditions: both sexes, plasma, healthy human volunteers, oral, 100 µg free base
Experimental: Blood samples were withdrawn pre-dose and at 0.5, 1, 2, 3, 4, 5, 6, 8, 12, 16, 24, 32, and 48 hours post dose and submitted to analysis for the parent drug and prodrug using a validated LC-MS-MS assay. The following pharmacokinetic parameters derived from the plasma analytical data were determined;

rat GIT transit = assay: Charcoal propulsion test (gut motility) in rat; format: in vivo; conditions: oral; for % inhibition of rat GIT transit: 60 min before charcoal
Experimental: The effect of a drug on gut motility can be studied by means of the charcoal propulsion test.
The method used was based on that described by Takemori et al. (J. Pharmacol. Exp. Ther. 169:39, 1969). Test treatments were administered orally 60 minutes prior to an oral dose of a 10% suspension of charcoal in 2.5% gum Arabic (2 ml/kg). Twenty minutes after dosing with charcoal, the rats were sacrificed and the entire gastrointestinal tract was removed quickly and carefully. The distance that the charcoal meal had traveled toward the caecum was measured and expressed as a percentage of the total gut length.

[3] = Pharmacokinetics of guanfacine and prodrug in rat hepatic portal and tail veins after oral prodrug; format: in vivo; conditions: 1 mg/kg
Description: The collection of blood from the hepatic portal vein following oral administration allows the analysis of absorbed prodrug and active drug levels prior to first pass metabolism in the liver. Systemic levels can be measured by sampling of blood from the tail vein. Rats were surgically prepared under isofluorane anaesthesia by attaching a silicon catheter to the portal vein then exteriorising it at the nape of the neck with a blood collection port attached. Oral doses of compound 3 were administered by gavage as a single bolus dose at a dose volume of 10 mL/kg. At each sampling time serial point blood samples (approximately 0.2 mL) were taken simultaneously from the lateral tail vein cannula and the hepatic portal cannula. After collection of the final blood sample each animal was killed by cervical dislocation. […] Pharmacokinetic parameters in portal and systemic plasma were derived by non-compartmental analysis (linear/logarithmic trapezoidal) using WinNonlin (Version 4.1) software.

[4] = Comparative bioavailability study of guanfacine in monkeys given guanfacine or guanfacine prodrug; format: in vivo, monkey; conditions: for Cmax: monkey, plasma, po, 0.5 mg/kg
Experimental: Blood samples were taken at various times after administration and submitted to analysis for the parent drug and prodrug using a qualified LC-MS-MS assay. The following pharmacokinetic parameters derived from the plasma analytical data were determined using Win Nonlin;

Solubility = conditions: Solubility
rat = assay: Elevated Plus-Maze Test in the rat; format: in vivo
Description: The method, which detects anxiolytic activity, follows that described by Handley and Mithani (Naunyn. Schmied. Arch. Pharmacol., 327, 1-5, 1984). Rodents avoid open spaces (the open arms of an elevated plus-maze). The percentage of time spent on the open arms and the number of entries in the open arms are considered to be the best measures of anxiety (File, S. E. 1991. Animal models of anxiety. In Biological Psychiatry (G. Racagni, N. Brunello, and T. Fukuda, eds.) pp. 596-599. Elsevier, New York.).
Anxiolytics increase exploratory activity in the open arms, as indicated by increased time spent on the open arms and/or by increased % open-arm entries.

[5] = as early as; cited from earlier work
[6] = pH 1.2, 37° C., 0.1M HCl/NaCl buffer, 1 h
[7] = pH 1.2, 37° C., 0.1M HCl/NaCl buffer, time 0
[8] = pH 3.0, 20° C., 0.1M citrate buffer, 2 h
[9] = pH 3.0, 20° C., 0.1M citrate buffer, time 0
[10] = pH 6.8, 37° C., 0.1M phosphate buffer, 2 h
[11] = pH 6.8, 37° C., 0.1M phosphate buffer, time 0
[12] = pH 7.4, 37° C., 0.1M phosphate buffer, time 0
[13] = dose 00.1 mg/kg (guanfacine free base equivalents)
[14] = dose 00.3 mg/kg (guanfacine free base equivalents)
[15] = DMSO, organic solvent or mixture, in DMSO
[16] = pH 7.4, 37° C., 0.1M phosphate buffer, 2 h, listed as Guanfacine (2-Hydroxyethyl) Carbamate

SMILES | Active drug [1, 6] | Active drug [1, 7] | Pro-drug [1, 7] | Active drug [1, 8] | Active drug [1, 9] | Pro-drug [1, 9] | Active drug [1, 10] | Active drug [1, 11] | Pro-drug [1, 11] | Active drug [1, 12] | Pro-drug [1, 12] | % inhibition of rat GIT transit (rat GIT transit; [13]) | % inhibition of rat GIT transit (rat GIT transit; [14]) | Cmax [4] | solubility (Solubility; [15]) | solubility (Solubility; water, in water) | further results
CCC(C)OC(=O)NC(N)=NC(=O)Cc1c(Cl)cccc1Cl.Cl (stereo not drawn) [Compound 7, 2-{N′-[2-(2,6-Dichloro-phenyl)-acetyl]-guanidinocarbonyloxy}-butane Hydrochloride] | 0.0 | 0.0 | 100 | 0.0 | 0.0 | 100 | 0.0 | 0.0 | 100 | 0.0 | 100 |  |  |  |  |  | Pro-drug [1, 6]: 95.9; Pro-drug ([1]; pH 3.0, 20° C., 0.1M citrate buffer, 2 h, listed as Guanfacine 2-Butanol Carbamate Hydrochloride, Hydrochloride): 98.7 and 98.9; Pro-drug [1, 10]: 93.4; Active drug ([1]; pH 7.4, 37° C., 0.1M phosphate buffer, 2 h): 0.0; Pro-drug ([1]; pH 7.4, 37° C., 0.1M phosphate buffer, 2 h, listed as Guanfacine 2-Butanol Carbamate Hydrochloride, Hydrochloride): 93.4 and 93.6; solubility (physchem; organic solvent or mixture): > 10000 µg/mL; solubility (physchem; water): < 1000 µg/mL
CCOC(=O)NC(N)=NC(=O)Cc1c(Cl)cccc1Cl.Cl [Compound 3, {N′-[2-(2,6-Dichloro-phenyl)-acetyl]-guanidinocarbonyloxy}ethane Hydrochloride] |  |  |  |  |  |  |  |  |  |  |  | 15% | 56% | 0.93 ng/mL | > 10000 µg/mL | < 1000 µg/mL | Ki (a-2A adrenoceptor): > 10 µM; half-life ([2]; n = 4, read-out: t½, analyte Compound 3 (converted)): 57 ± 11.4 min; AUC(0-t) ([2]; read-out: AUC0-t, analyte Compound 3): 0.092 ± 0.043 ng·h/mL; Cmax ([2]; read-out: Cmax, analyte Compound 3): 0.089 ± 0.038 ng/mL; % inhibition of rat GIT transit (rat GIT transit; dose 100 mg/kg (guanfacine free base equivalents)): 57%; AUC ([3]; hepatic portal vein plasma, read-out: Hepatic portal vein Prodrug AUC): 397 ng·h/mL; Cmax ([3]; hepatic portal vein plasma, read-out: Hepatic portal vein Prodrug Cmax): 149 ng/mL; AUC ([3]; tail vein (systemic) plasma, read-out: Tail vein Prodrug AUC): 88.6 ng·h/mL; Cmax ([3]; tail vein (systemic) plasma, read-out: Tail vein Prodrug Cmax): 16.4 ng/mL; Time after administration up to which systemic prodrug was detectable ([4]; monkeys, 0.5 mg/kg guanfacine free base equivalents): up to 24 hours
NC(=NC(=O)Cc1c(Cl)cccc1Cl)NC(=O)OCCO [Compound 19, 2-{N′-[2-(2,6-Dichloro-phenyl)-acetyl]-guanidinocarbonyloxy}ethanol] | 0.5 | 0.0 | 100 | 0.4 | 0.0 | 100 | 9.8 | 0.0 | 100 | 0.0 | 100 |  |  | 60.8 ng/mL | > 10000 µg/mL | < 1000 µg/mL | Change in time spent in the open arms (rat; 10 mg/kg, NS): +69%; Change in percent of entries in open arms (rat; 10 mg/kg, p<0.05): +87%; Efficacy in the Elevated Plus-Maze Test (rat; rat): efficacious; Pro-drug ([1]; pH 1.2, 37° C., 0.1M HCl/NaCl buffer, 1 h, listed as Guanfacine (2-Hydroxyethyl) Carbamate): 91.4 and 91.5; Pro-drug [1, 8]: 98.0; Pro-drug ([1]; pH 6.8, 37° C., 0.1M phosphate buffer, 2 h, listed as Guanfacine (2-Hydroxyethyl) Carbamate): 87.4 and 87.5; Active drug [1, 16]: 22.6 and 22.3; Pro-drug [1, 16]: 72.5 and 73.0; solubility (Solubility; water/CH3CN (1:1), aqueous with cosolvent or surfactant or cyclodextrin, in water/CH3CN (1:1)): > 10000 µg/mL
N=C(N)NC(=O)Cc1c(Cl)cccc1Cl [Guanfacine, N-Amidino-2-(2,6-dichlorophenyl)acetamide monohydrochloride, reference compound] |  |  |  |  |  |  |  |  |  |  |  | 41% | 56% |  |  |  | Reduction in the distance traveled by the charcoal plug within 20 minutes, compared to control group (rat GIT transit; 0.1 mg base/kg): about 41%; Time after dosing at which peak plasma drug levels are reached [5]: ≥ 1 h
